Experimental findings from the supplement of paper PMC8024199 are described below.

What all share (experiment): drug sensitivity score (DSS) (DSS score); higher = more sensitive (stronger growth inhibition); extreme values may be limits of the assay
For experiment [1], the system named is Ba/F3 P210-BCR-ABL1 RUNX1-/- (mouse). Put shortly: (§1)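 Each value is a drug sensitivity score derived from CellTiter-Glo luminescence scaled between vehicle and positive-control wells. Mouse Ba/F3 clones, CRISPR/Cas9-edited at a target exon or edited controls, were seeded at 10,000 cells per well in RPMI with 10% FBS and treated for 72 h at 37 °C and 5% CO2. Compounds from a 528-compound library were tested at five concentrations over a 10,000-fold range, and scores were averaged over two replicates.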

For experiment [2], the system named is Ba/F3 P210-BCR-ABL1 RUNX1-/mut (mouse). Put shortly: as §1
The subject of experiment [3] is Ba/F3 P210-BCR-ABL1 RUNX1wt/wt control (mouse). Put shortly: as §1

Each structure is given as a SMILES string. ± gives the standard deviation of the averaged measurements.

For the molecule `CNC(=O)c1ccc(N2C(=S)N(c3ccc(C#N)c(C(F)(F)F)c3)C(=O)C2(C)C)cc1F` [Enzalutamide], the drug sensitivity score in experiment [1] amounted to 1.15 ± 1.6; in experiment [2], 1.05 ± 1.5; in experiment [3] it was 0.3 ± 0.14.
On the same counts, the results for `NS(=O)(=O)NCCNc1nonc1/C(=N/O)Nc1ccc(F)c(Br)c1` [Epacadostat] are 1.05 ± 1.2, 0.7 ± 0.99 and 0.
For `COc1cccc2c1C(=O)c1c(O)c3c(c(O)c1C2=O)C[C@@](O)(C(=O)CO)C[C@@H]3O[C@H]1C[C@H](N)[C@@H](O)[C@H](C)O1` [Epirubicin], the drug sensitivity score in experiment [1] came to 24.9 ± 0.35; in experiment [2] it was 18.6 ± 3.5; in experiment [3], 13.1 ± 0.21.
The corresponding values for `CCOc1ccccc1-n1c(C(C)N2CCN(C(=O)COc3ccc(Cl)cc3)CC2)nc2ccccc2c1=O` (configuration not stated) [Erastin] are 11.2 ± 1.1, 8.45 ± 5.9 and 0.
On the same counts, the results for `COc1cc(OC)cc(N(CCNC(C)C)c2ccc3ncc(-c4cnn(C)c4)nc3c2)c1` [Erdafitinib] are 1.5 ± 0.14, 0 and 0.
On the same counts, the results for `C=C1C[C@@H]2CC[C@@]34C[C@H]5O[C@H]6[C@@H](O3)[C@H]3O[C@H](CC[C@@H]3O[C@H]6[C@H]5O4)CC(=O)C[C@@H]3[C@@H](OC)[C@@H](C[C@H](O)CN)O[C@H]3C[C@H]3O[C@@H](CC[C@@H]1O2)C[C@@H](C)C3=C` [Eribulin] are 25.9 ± 1.2, 24.6 ± 0.85 and 17.4 ± 0.14.
As to `CCn1c(=O)c(-c2ccc(Cl)cc2Cl)cc2cnc(Nc3ccc(N4CCNCC4)c(F)c3)nc21` [FRAX486], the figures for the drug sensitivity score in experiment [1], in experiment [2] and in experiment [3] were 23.2 ± 1.2, 16.4 ± 0.42 and 8.95 ± 0.64, respectively.
The corresponding values for `Cc1cnc(Nc2ccc(OCCN3CCCC3)cc2)nc1Nc1cccc(S(=O)(=O)NC(C)(C)C)c1` [Fedratinib] are 11.7 ± 2, 10.4 ± 2.7 and 5.8.
On the same counts, the results for `CON(C)C(=O)N1N=C(c2cc(F)ccc2F)S[C@@]1(CCCN)c1ccccc1` [Filanesib] are 19.6 ± 2.2, 14.95 ± 0.071 and 7.85 ± 0.35.
As for `O=C(Nc1nc2cccc(-c3ccc(CN4CCS(=O)(=O)CC4)cc3)n2n1)C1CC1` [Filgotinib], the drug sensitivity score in experiment [1] stood at 1.5 ± 1.7; in experiment [2], 1.8 ± 2.5; in experiment [3] it was 0.
The corresponding values for `COc1cc(Nc2ncc(F)c(Nc3ccc4c(n3)N(COP(=O)(O)O)C(=O)C(C)(C)O4)n2)cc(OC)c1OC` [Fostamatinib] are 1.4 ± 0.14, 0.45 ± 0.64 and 0.45 ± 0.49.
The corresponding values for `CC1(C)OCCn2c1nc1c(N3CCOCC3)nc(-c3cnc(N)nc3)nc12` [GDC-0084] are 9.3 ± 0.14, 10.3 ± 0.85 and 4.8.
In the case of `O=C(NOCCO)c1ccc2cncn2c1Nc1ccc(I)cc1F` [GDC-0623], the drug sensitivity score in experiment [1] was 10.8 ± 8.1; in experiment [2], 3.7 ± 3.7; in experiment [3], 0.55 ± 0.78.
Regarding `C[C@H]1CN(C2COC2)CCN1c1ccc(Nc2cc(-c3ccnc(N4CCn5c(cc6c5CC(C)(C)C6)C4=O)c3CO)cn(C)c2=O)nc1` [GDC-0853], the drug sensitivity score in experiment [1], in experiment [2] and in experiment [3] was 0 each time.
In the case of `O[C@H](C[C@H]1c2c(F)cccc2-c2cncn21)[C@H]1CC[C@H](O)CC1` [GDC-0919], the drug sensitivity score came to 0 in experiment [1], 0.05 ± 0.071 in experiment [2] and 1.2 ± 0.28 in experiment [3].
For `CNc1nc(Nc2cn(C(C)(C)C#N)nc2C)ncc1C(F)(F)F` [GNE-0877], the drug sensitivity score in experiment [1], in experiment [2] and in experiment [3] was 0 each time.
Take `CCNc1nc(Nc2cc(F)c(C(=O)N3CCOCC3)cc2OC)ncc1C(F)(F)F` [GNE-7915]: the drug sensitivity score in experiment [1], in experiment [2] and in experiment [3] was 0 in each case.
In the case of `CCCc1cc(C)[nH]c(=O)c1CNC(=O)c1cc(-c2ccnc(N3CCN(C)CC3)c2)cc2c1cnn2C(C)C` [GSK343], the drug sensitivity score stood at 0.75 ± 0.78 in experiment [1], 1.05 ± 1.5 in experiment [2] and 0 in experiment [3].
On the same counts, the results for `CCCOc1ccn2c(C(C)=O)cc(-c3ccccc3S(C)(=O)=O)c2c1` [GSK2801] are 0.1 ± 0.14, 2.3 ± 3.2 and 0.
On the same counts, the results for `CCOC(=O)CCNc1cc(N2CCc3ccccc3CC2)nc(-c2ccccn2)n1` [GSK-J4] are 5.1 ± 4.8, 4.5 ± 3.8 and 2.45 ± 0.78.
On the same counts, the results for `C[C@@H]1C=C2C(=O)O[C@@H]3CC[C@H](C1)[C@]23O` [Galiellalactone] are 12 ± 3.1, 9.7 ± 4.1 and 5.1.
As to `Cc1cccc(-c2nn3c(c2-c2ccnc4ccc(C(N)=O)cc24)CCC3)n1` [Galunisertib], the drug sensitivity score in experiment [1], in experiment [2] and in experiment [3] was 0 in each case.
With `Cc1cc(Nc2cc(CN3CCOCC3)c3nc(C)c(Cc4ccc(Cl)cc4F)n3n2)n[nH]1` [Gandotinib], the drug sensitivity score came out at 4.8 ± 0.71 in experiment [1], 4.9 ± 1.6 in experiment [2] and 2.35 ± 0.21 in experiment [3].
The corresponding values for `CC(C)c1cc(-c2n[nH]c(=O)n2-c2ccc3c(ccn3C)c2)c(O)cc1O` [Ganetespib] are 24.8 ± 3.4, 23.6 ± 2.2 and 19.1 ± 0.21.
The corresponding values for `CN(C)C1CCN(C(=O)c2ccc(NC(=O)Nc3ccc(-c4nc(N5CCOCC5)nc(N5CCOCC5)n4)cc3)cc2)CC1` [Gedatolisib] are 13.6 ± 0.35, 15.2 ± 0.92 and 4.55 ± 0.071.
On the same counts, the results for `CCc1nc(C(N)=O)c(Nc2ccc(N3CCC(N4CCN(C)CC4)CC3)c(OC)c2)nc1NC1CCOCC1` [Gilteritinib] are 6.2 ± 2, 8.4 ± 2.5 and 3.25 ± 0.78.
For `CCN(CC)Cc1ccc2cc(COC(=O)Nc3ccc(C(=O)NO)cc3)ccc2c1` [Givinostat], the drug sensitivity score was 13.4 ± 0.28 in experiment [1], 12.7 ± 0.57 in experiment [2] and 7.9 ± 0.99 in experiment [3].
Regarding `CN1CC[C@@H](NC(=O)Nc2ccc(C#N)cc2)C[C@@H]1c1nc2ccccc2[nH]1` [Glasdegib], the drug sensitivity score in experiment [1] was 0; in experiment [2], 0; in experiment [3], 0.05 ± 0.071.
In the case of `COCCNCc1ccc(-c2cc3nccc(Oc4ccc(NC(=S)NC(=O)Cc5ccc(F)cc5)cc4F)c3s2)nc1` [Glesatinib], the drug sensitivity score in experiment [1] turned out to be 7.4 ± 0.14; in experiment [2], 3.55 ± 1.1; in experiment [3], 0.
